Measurements as given in patent US20160280699A1, “SUBSTITUTED PHENYLALANINE DERIVATIVES” (BAYER PHARMA AKTIENGESELLSCHAFT, priority 2013, published 2016).
Structures can show the parent of a compound that is named as a salt.

Experiments:
[1] = molecular target: T1, human factor XIa (Homo sapiens, UniProt P03951); assay: Measurement of FXIa inhibition (fluorogenic peptide substrate Boc-Glu(OBzl)-Ala-Arg-AMC); type: biochemical; conditions: factor XIa from Kordia, 15 min preincubation, 30 min at 22° C., fluorescence
T1 construct: purchased Kordia
Description: The factor XIa inhibition of the substances according to the invention is determined using a biochemical test system which utilizes the reaction of a peptidic factor XIa substrate to determine the enzymatic activity of human factor XIa. Here, factor XIa cleaves from the peptic factor XIa substrate the C-terminal aminomethylcoumarin (AMC), the fluorescence of which is measured. The determinations are carried out in microtitre plates.
Test substances are dissolved in dimethyl sulphoxide and serially diluted in dimethyl sulphoxide (3000 μM to 0.0078 μM; resulting final concentrations in the test: 50 μM to 0.00013 μM). In each case 1 μl of the diluted substance solutions is placed into the wells of white microtitre plates from Greiner (384 wells). Subsequently, the following are added successively: 20 μl of assay buffer (50 mmol/l Tris buffer pH 7.4; 100 mmol/l sodium chloride; 5 mmol/l calcium chloride; 0.1% bovine serum albumin) and 20 μl of factor XIa from Kordia (0.45 nM in assay buffer). After 15 min of incubation, the enzyme reaction is started by addition of 20 μl of the factor XIa substrate Boc-Glu(OBzl)-Ala-Arg-AMC dissolved in assay buffer (10 μM in assay buffer) from Bachem, the mixture is incubated at room temperature (22° C.) for 30 min and fluorescence is then measured (excitation: 360 nm, emission: 460 nm). The measured emissions of the test batches with test substance are compared to those of control batches without test substance (only dimethyl sulphoxide instead of test substance in dimethyl sulphoxide), and IC50 values are calculated from the concentration/activity relationships.

[2] = tested on: human and animal plasma; assay: Determination of anticoagulatory activity: activated partial thromboplastin time (aPTT) in plasma; type: biochemical; conditions: concentration of test substance which brings about a 1.5-fold extension of the aPTT, 37° C., C.K. Prest kit
Description: The anticoagulatory activity of the test substances is determined in vitro in human and animal plasma (for example mouse, rat, rabbit, pig and dog plasma). To this end, blood is drawn off in a mixing ratio of sodium citrate/blood of 1:9 using a 0.11 molar sodium citrate solution as receiver. Immediately after the blood has been drawn off, it is mixed thoroughly and centrifuged at about 4000 g for 15 minutes. The supernatant is pipetted off.
The activated partial thromboplastin time (aPTT) is determined in the presence of varying concentrations of test substance or the corresponding solvent using a commercial test kit (C.K. Prest from Diagnostica Stago). The test compounds are incubated with the plasma and the PTT reagent (cephalin, kaolin) at 37° C. for 3 minutes. Coagulation is then started by addition of a 25 mM aqueous calcium chloride solution, and the time when coagulation occurs is determined. The concentration of test substance which brings about a 1.5-fold extension of the aPTT is determined Activity data from this test are listed in Table B below: […]

T1 sequence (P03951 388-625 limits assumed): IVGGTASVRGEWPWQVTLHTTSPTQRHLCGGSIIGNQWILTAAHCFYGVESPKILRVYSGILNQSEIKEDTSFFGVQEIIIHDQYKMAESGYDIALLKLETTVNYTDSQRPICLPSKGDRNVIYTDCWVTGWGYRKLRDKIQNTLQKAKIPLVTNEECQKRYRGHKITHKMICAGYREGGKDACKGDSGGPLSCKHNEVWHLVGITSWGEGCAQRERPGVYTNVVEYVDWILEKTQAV
T1 sequence (P03951 19-387 partner limits assumed): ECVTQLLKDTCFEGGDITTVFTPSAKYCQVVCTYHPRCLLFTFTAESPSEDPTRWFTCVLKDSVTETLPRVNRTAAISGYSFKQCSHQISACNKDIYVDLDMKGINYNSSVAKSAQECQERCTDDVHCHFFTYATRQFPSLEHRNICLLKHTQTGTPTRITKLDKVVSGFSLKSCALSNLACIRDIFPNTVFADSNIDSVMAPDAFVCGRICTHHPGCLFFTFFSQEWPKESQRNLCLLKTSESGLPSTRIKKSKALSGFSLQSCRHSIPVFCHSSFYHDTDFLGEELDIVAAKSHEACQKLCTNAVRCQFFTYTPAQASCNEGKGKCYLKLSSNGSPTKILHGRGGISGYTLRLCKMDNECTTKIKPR

SMILES | IC50 [1] [nM] | aPTT [2] [µmol/L]
CN(C)CCCOc1ccc(-c2ccc(C[C@H](NC(=O)[C@H]3CC[C@H](CN)CC3)C(=O)Nc3ccc(-c4nn[nH]n4)cc3)cc2F)cn1 [Example 45, N-alpha-{[trans-4-(Aminomethyl)cyclohexyl]carbonyl}-4-{6-[3-(dimethylamino)propoxy]pyridin-3-yl}-3-fluoro-N-[4-(2H-tetrazol-5-yl)phenyl]-L-phenylalaninamide hydrochloride] | 13 | 0.35
CN(C)c1ncc(-c2ccc(C[C@H](NC(=O)[C@H]3CC[C@H](CN)CC3)C(=O)Nc3ccc(-c4nn[nH]n4)cc3)cc2)c(OCc2ccccc2)n1 [Example 22, N-alpha-{[trans-4-(Aminomethyl)cyclohexyl]carbonyl}-4-[4-(benzyloxy)-2-(dimethylamino)-pyrimidin-5-yl]-N-[4-(2H-tetrazol-5-yl)phenyl]-L-phenylalaninamide hydrochloride] | 6.1 | 0.27
NC[C@H]1CC[C@H](C(=O)N[C@@H](Cc2ccc(-c3ccnc(N4CCNCC4)c3)cc2)C(=O)Nc2ccc(-c3nn[nH]n3)cc2)CC1 [Example 33, N-alpha-{[trans-4-(Aminomethyl)cyclohexyl]carbonyl}-4-[2-(piperazin-1-yl)pyridin-4-yl]-N-[4-(2H-tetrazol-5-yl)phenyl]-L-phenylalaninamide hydrochloride] | 20 | 0.29
Cc1ncccc1-c1ccc(C[C@H](NC(=O)[C@H]2CC[C@H](CN)CC2)C(=O)Nc2ccc3c(=O)[nH][nH]c3c2)cc1 [Example 27, N-alpha-{[trans-4-(Aminomethyl)cyclohexyl]carbonyl}-4-(2-methylpyridin-3-yl)-N-(3-oxo-2,3-dihydro-1H-indazol-6-yl)-L-phenylalaninamide hydrochloride] | 5.6 | 0.24
NC[C@H]1CC[C@H](C(=O)N[C@@H](Cc2ccc(-c3ccnc(N4CCOCC4)c3F)cc2)C(=O)Nc2ccc(-c3nn[nH]n3)cc2)CC1 [Example 46, N-alpha-{[trans-4-(Aminomethyl)cyclohexyl]carbonyl}-4-[3-fluoro-2-(morpholin-4-yl)pyridin-4-yl]-N-[4-(2H-tetrazol-5-yl)phenyl]-L-phenylalaninamide hydrochloride] | 3.7 | 0.45
NC[C@H]1CC[C@H](C(=O)N[C@@H](Cc2ccc(-c3cnc(N4CCCCC4)nc3O)cc2)C(=O)Nc2ccc(-c3nn[nH]n3)cc2)CC1 [Example 40, N-alpha-{[trans-4-(Aminomethyl)cyclohexyl]carbonyl}-4-[4-hydroxy-2-(piperidin-1-yl)pyrimidin-5-yl]-N-[4-(2H-tetrazol-5-yl)phenyl]-L-phenylalaninamide hydrochloride] | 2.6 | 0.08
NC[C@H]1CC[C@H](C(=O)N[C@@H](Cc2ccc(-c3cncc(S(=O)(=O)NC4CCNCC4)c3)cc2)C(=O)Nc2ccc(-c3nnn[nH]3)cc2)CC1 [Example 52, N-alpha-{[trans-4-(Aminomethyl)cyclohexyl]carbonyl}-4-[5-(piperidin-4-ylsulphamoyl)pyridin-3-yl]-N-[4-(1H-tetrazol-5-yl)phenyl]-L-phenylalaninamide hydrochloride] | 6.9 | 0.21
NC[C@H]1CC[C@H](C(=O)N[C@@H](Cc2ccc(-c3ccc(NCCN4CCOCC4)nc3)cc2)C(=O)Nc2ccc(-c3nn[nH]n3)cc2)CC1 [Example 16, N-alpha-{[trans-4-(Aminomethyl)cyclohexyl]carbonyl}-4-(6-{[2-(morpholin-4-yl)ethyl]amino}pyridin-3-yl)-N-[4-(2H-tetrazol-5-yl)phenyl]-L-phenylalaninamide hydrochloride] | 13 | 0.33
Cc1cc(N2CCNCC2)ncc1-c1ccc(C[C@H](NC(=O)[C@H]2CC[C@H](CN)CC2)C(=O)Nc2ccc(-c3nn[nH]n3)cc2)cc1 [Example 41, N-alpha-{[trans-4-(Aminomethyl)cyclohexyl]carbonyl}-4-[4-methyl-6-(piperazin-1-yl)pyridin-3-yl]-N-[4-(2H-tetrazol-5-yl)phenyl]-L-phenylalaninamide hydrochloride] | 3.2 | 0.06
NC[C@H]1CC[C@H](C(=O)N[C@@H](Cc2ccc(-c3ccnc(N4CCOCC4)c3)cc2)C(=O)Nc2ccc(-c3nn[nH]n3)cc2)CC1 [Example 35, N-alpha-{[trans-4-(Aminomethyl)cyclohexyl]carbonyl}-4-[2-(morpholin-4-yl)pyridin-4-yl]-N-[4-(2H-tetrazol-5-yl)phenyl]-L-phenylalaninamide hydrochloride] | 5.5 | 0.48

Now from value to molecule, other results behind:

IC50 [1] [nM] | SMILES | aPTT [2] [µmol/L]
5.2 | NC[C@H]1CC[C@H](C(=O)N[C@@H](Cc2ccc(-c3ccncc3)cc2)C(=O)Nc2ccc(-c3nn[nH]n3)cc2)CC1 [Example 11, N-alpha-{[trans-4-(Aminomethyl)cyclohexyl]carbonyl}-4-pyridin-4-yl-N-[4-(2H-tetrazol-5-yl)phenyl]-L-phenylalaninamide hydrochloride] | 0.24
3.7 | NC[C@H]1CC[C@H](C(=O)N[C@@H](Cc2ccc(-c3cccnc3N)cc2)C(=O)Nc2ccc(-c3nn[nH]n3)cc2)CC1 [Example 26, N-alpha-{[trans-4-(Aminomethyl)cyclohexyl]carbonyl}-4-(2-aminopyridin-3-yl)-N-[4-(2H-tetrazol-5-yl)phenyl]-L-phenylalaninamide hydrochloride] | 0.19
11 | CN1CCN(c2cc(-c3ccc(C[C@H](NC(=O)C4CCC(CN)CC4)C(=O)Nc4ccc(-c5nnn[nH]5)cc4)cc3)ccn2)CC1 (stereo partly drawn) [Example 53, N-alpha-{[trans-4-(Aminomethyl)cyclohexyl]carbonyl}-4-[2-(4-methylpiperazin-1-yl)pyridin-4-yl]-N-[4-(1H-tetrazol-5-yl)phenyl]-L-phenylalaninamide hydrochloride] | 0.21
2.7 | NC[C@H]1CC[C@H](C(=O)N[C@@H](Cc2ccc(-c3ccc(C(F)(F)F)nc3)cc2)C(=O)Nc2ccc(-c3nn[nH]n3)cc2)CC1 [Example 18, N-alpha-{[trans-4-(Aminomethyl)cyclohexyl]carbonyl}-N-[4-(2H-tetrazol-5-yl)phenyl]-4-[6-(trifluoromethyl)pyridin-3-yl]-L-phenylalaninamide hydrochloride] | 0.33
7 | NC[C@H]1CC[C@H](C(=O)N[C@@H](Cc2ccc(-c3cccnc3)cc2)C(=O)Nc2ccc(-c3nn[nH]n3)cc2)CC1 [Example 5, N-alpha-{[trans-4-(Aminomethyl)cyclohexyl]carbonyl}-4-pyridin-3-yl-N-[4-(2H-tetrazol-5-yl)phenyl]phenylalaninamide] | 0.35
1.3 | COc1ccc(-c2ccc(C[C@H](NC(=O)[C@H]3CC[C@H](CN)CC3)C(=O)Nc3ccc(-c4nn[nH]n4)cc3)cc2)c(C)n1 [Example 21, N-alpha-{[trans-4-(Aminomethyl)cyclohexyl]carbonyl}-4-(6-methoxy-2-methylpyridin-3-yl)-N-[4-(2H-tetrazol-5-yl)phenyl]-L-phenylalaninamide hydrochloride] | 0.27
3.8 | COc1cnccc1-c1ccc(C[C@H](NC(=O)[C@H]2CC[C@H](CN)CC2)C(=O)Nc2ccc(-c3nn[nH]n3)cc2)cc1 [Example 20, N-alpha-{[trans-4-(Aminomethyl)cyclohexyl]carbonyl}-4-(3-methoxypyridin-4-yl)-N-[4-(2H-tetrazol-5-yl)phenyl]-L-phenylalaninamide hydrochloride] | 0.22
3.8 | CN(C)c1ccc(-c2ccc(C[C@H](NC(=O)[C@H]3CC[C@H](CN)CC3)C(=O)Nc3ccc(-c4nnn[nH]4)cc3)cc2)cn1 [Example 4, N-alpha-{[trans-4-(Aminomethyl)cyclohexyl]carbonyl}-4-[6-(dimethylamino)pyridin-3-yl]-N-[4-(1H-tetrazol-5-yl)phenyl]-L-phenylalaninamide hydrochloride] | 0.23
